{"source": "patent US20210290644A1", "about": "“COMPOUNDS AND METHODS FOR TREATING FUNGAL INFECTIONS” (Amplyx Pharmaceuticals, Inc., priority 2018, published 2021)", "key": {"[1]": {"assay": "Study #2 Phase 1: effect of food (fed vs fasted) on pharmacokinetics of Compound 1A after 400 mg oral Compound 1;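 also: cohort 1b subjects took one oral dose in both fed and fasted states, across two separate periods (E, F) within the single ascending dose phase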", "conditions": "for F: 400 mg oral, ratio of geometric mean AUC(inf) to IV treatment after correction for dose", "text": "Study #2 of Compound 1 was a Phase 1, double-blind, placebo-controlled, randomized study in healthy volunteers that consisted of a series of single and multiple dose treatments. In the single ascending dose (SAD) phase, subjects in Cohort 1a received a single IV dose in Period A and then rising single oral doses in Periods B to D. Subjects in Cohort 1b received a single oral dose under fed and fasted conditions in Periods E and F. Subjects in Cohorts 2 and 3 received once-daily oral doses for 14 days, as did subjects in Cohort 4 as part of an in vivo screen for drug-drug interaction (DDI) potential.\nBlood samples for the determination of Compound 1 and Compound 1A plasma concentrations were collected before and at appropriate times during all single and multiple dose administrations of Compound 1. For SAD Cohorts 1a and 1b, urine samples for the determination of Compound 1A were collected through 48 hrs after dosing."}, "[2]": {"assay": "clinical", "conditions": "human, plasma, po", "text": "In the single ascending dose (SAD) phase, subjects in Cohort 1a received a single IV dose in Period A and then rising single oral doses in Periods B to D. Subjects in Cohort 1b received a single oral dose under fed and fasted conditions in Periods E and F. Subjects in Cohorts 2 and 3 received once-daily oral doses for 14 days, as did subjects in Cohort 4 as part of an in vivo screen for drug-drug interaction (DDI) potential.\nFor SAD Cohorts 1a and 1b, urine samples for the determination of Compound 1A were collected through 48 hrs after dosing.\nForty-six (46) subjects were enrolled into the study, 8 in Cohort 1a, 10 in Cohort 1b, and 8 each in Cohorts 2 and 3."}, "[3]": {"assay": "Study #1 Phase 1: plasma and urine pharmacokinetics of Compound 1 and Compound 1A after IV infusion of Compound 1 (SAD, MAD, loading regimen)", "conditions": "both, human", "text": "This was a Phase 1, first-in-human, randomized, double-blind, placebo-controlled single ascending dose (SAD) and multiple ascending dose (MAD) escalation study of 120 healthy male and female subjects. The objectives of the study were to evaluate the safety, tolerability, and pharmacokinetics of single and multiple doses of Compound 1 administered by intravenous (IV) infusion.\nIn the single ascending dose (SAD) phase, Cohorts 1 to 6 and 11A to 11D received single doses. For Cohorts 11A to 11D, the infusion time varied from 0.5 to 3 hours to evaluate the relationship between C., and tolerability. In the multiple ascending dose (MAD) phase, Cohorts 7 to 10 received multiple doses over 14 days, and Cohort 12 examined the feasibility of a loading dose regimen.\nBlood samples for the determination of Compound 1 and Compound 1A plasma concentrations were collected before and at appropriate times during all single- and multiple-dose administrations of Compound 1. For SAD Cohorts 1 to 6, urine samples for the determination of Compound 1A were collected through 48 hrs after dosing.\nEighty (80) subjects were enrolled into SAD Cohorts 1 to 6 and 11A to 11D. Within each cohort, six subjects were randomized to Compound 1 and two subjects to placebo. All 60 subjects randomized to Compound 1 completed dosing. Fifty-nine (59) subjects completed the study.\nForty (40) subjects were enrolled into MAD Cohorts 7 to 10 and Loading Dose Cohort 12. Within each cohort, six subjects were randomized to Compound 1 and two subjects to placebo.\nThe PK analysis population therefore consisted of 60 subjects in the SAD phase and 28 subjects in the MAD phase."}, "[4]": {"conditions": "Cohort 1B, 400 mg oral Compound 1, fed vs fasted"}, "[5]": {"conditions": "plasma, 30 mg, Cohort 2: Compound 1 30 mg/3 hr IV, single dose, geometric mean [geometric %CV]"}, "[6]": {"conditions": "plasma, 100 mg, Cohort 3: Compound 1 100 mg/3 hr IV, single dose, geometric mean [geometric %CV]"}}, "note": "Values joined by “and” are separate entries in the source; they are usually repeats but may differ in a detail not shown here. Equal values may be shown once. “Also recorded” adds a separate entry of the source.", "data": [{"smiles": "Nc1ncccc1-c1cc(Cc2ccc(COc3ccccn3)cc2)no1", "note": "[Compound 1A]", "values": [{"measurement": "effect of high fat/high calorie meal on bioavailability/exposure", "setting": "[1]; 400 mg oral Compound 1", "result": "no significant effect; also recorded: no impact of food"}, {"measurement": "least squares geometric mean ratios (LSGMR) fed/fasted for Cmax and both AUCs", "setting": "[1]; 400 mg oral Compound 1, high fat/high calorie meal", "result": "~106", "unit": "%"}, {"measurement": "Geometric Mean Ratio, AUC(0-t)", "setting": "[1]; [4]", "result": 106.00, "unit": "%"}, {"measurement": "Geometric Mean Ratio, AUC(inf)", "setting": "[1]; [4]", "result": 106.15, "unit": "%"}, {"measurement": "Geometric Mean Ratio, Cmax", "setting": "[1]; [4]", "result": 106.29, "unit": "%"}, {"measurement": "F", "setting": "[1]; Cohort 1B, Fasted", "result": 101.2, "unit": "%"}, {"measurement": "F", "setting": "[1]; Cohort 1B, Fed", "result": 107.4, "unit": "%"}, {"measurement": "AUC(0-t)", "setting": "[1]; human, plasma, po, 400 mg, AUC(0-24), Cohort 1B, 400 mg oral Compound 1, Fed, geometric mean", "result": 43600, "unit": "ng·h/mL"}, {"measurement": "AUC(0-t)", "setting": "[1]; human, plasma, po, 400 mg, AUC(0-t), Cohort 1B, 400 mg oral Compound 1, Fed, geometric mean", "result": 180000, "unit": "ng·h/mL"}, {"measurement": "AUC(0-inf)", "setting": "[1]; human, plasma, po, 400 mg, AUC(inf), Cohort 1B, 400 mg oral Compound 1, Fed, geometric mean", "result": 188000, "unit": "ng·h/mL"}, {"measurement": "CL/F", "setting": "[1]; human, plasma, po, 400 mg, CL/F, Cohort 1B, 400 mg oral Compound 1, Fed, geometric mean", "result": 0.395, "unit": "mL/min/kg"}, {"measurement": "Cmax", "setting": "[1]; human, plasma, po, 400 mg, Cmax, Cohort 1B, 400 mg oral Compound 1, Fed, geometric mean", "result": 4520, "unit": "ng/mL"}, {"measurement": "Tmax", "setting": "[1]; human, plasma, po, 400 mg, Tmax, Cohort 1B, 400 mg oral Compound 1, Fasted, median", "result": 2.5, "unit": "h"}, {"measurement": "Tmax", "setting": "[1]; human, plasma, po, 400 mg, Tmax, Cohort 1B, 400 mg oral Compound 1, Fed, median", "result": 3.75, "unit": "h"}, {"measurement": "Vd/F", "setting": "[1]; human, plasma, po, 400 mg, Vz/F, Cohort 1B, 400 mg oral Compound 1, Fed, geometric mean", "result": "159 L and 2.3 L/kg"}, {"measurement": "Tmax", "setting": "[1]; human, plasma, po, 400 mg, median tmax, 400 mg oral Compound 1, fasted conditions", "result": 2.5, "unit": "h"}, {"measurement": "Tmax", "setting": "[1]; human, plasma, po, 400 mg, median tmax, 400 mg oral Compound 1, fed conditions", "result": 3.75, "unit": "h"}, {"measurement": "half-life", "setting": "[1]; human, plasma, po, 400 mg, t½, Cohort 1B, 400 mg oral Compound 1, Fed, geometric mean", "result": 67.5, "unit": "h"}, {"measurement": "AUC(0-inf)", "setting": "[2]; 100 mg", "result": 39600, "unit": "ng·h/mL"}, {"measurement": "CL/F", "setting": "[2]; 100 mg", "result": 0.417, "unit": "mL/min/kg"}, {"measurement": "Cmax", "setting": "[2]; 100 mg", "result": 1300, "unit": "ng/mL"}, {"measurement": "Vd/F", "setting": "[2]; 100 mg", "result": "138 L and 1.78 L/kg"}, {"measurement": "half-life", "setting": "[2]; 100 mg", "result": 49.5, "unit": "h"}, {"measurement": "AUC(0-inf)", "setting": "[2]; 400 mg", "result": 177000, "unit": "ng·h/mL"}, {"measurement": "CL/F", "setting": "[2]; 400 mg", "result": 0.418, "unit": "mL/min/kg"}, {"measurement": "Cmax", "setting": "[2]; 400 mg", "result": 4250, "unit": "ng/mL"}, {"measurement": "Vd/F", "setting": "[2]; 400 mg", "result": "161 L and 2.35 L/kg"}, {"measurement": "half-life", "setting": "[2]; 400 mg", "result": 64.7, "unit": "h"}, {"measurement": "Vd", "setting": "[3]; in vivo, 10 mg", "result": 1.53, "unit": "L/kg"}, {"measurement": "Vd", "setting": "[3]; in vivo, 50 mg", "result": 188, "unit": "L"}, {"measurement": "AUC(0-t)", "setting": "[3]; in vivo, 200 mg", "result": 76000, "unit": "ng·h/mL"}, {"measurement": "AUC(0-t)", "setting": "[3]; plasma, 10 mg, AUC(0-24), Cohort 1: Compound 1 10 mg/3 hr IV, single dose, geometric mean [geometric %CV]", "result": 1540, "unit": "ng·h/mL"}, {"measurement": "AUC(0-t)", "setting": "[3]; plasma, 10 mg, AUC(0-t), Cohort 1: Compound 1 10 mg/3 hr IV, single dose, geometric mean [geometric %CV]", "result": 2380, "unit": "ng·h/mL"}, {"measurement": "AUC(0-inf)", "setting": "[3]; plasma, 10 mg, Cohort 1: Compound 1 10 mg/3 hr IV, single dose, geometric mean [geometric %CV]", "result": 4050, "unit": "ng·h/mL"}, {"measurement": "Tmax", "setting": "[3]; plasma, 10 mg, Cohort 1: Compound 1 10 mg/3 hr IV, single dose, median", "result": 3, "unit": "h"}, {"measurement": "Vd", "setting": "[3]; plasma, 10 mg, Vz, Cohort 1: Compound 1 10 mg/3 hr IV, single dose, geometric mean [geometric %CV]", "result": 107, "unit": "L"}, {"measurement": "AUC(0-t)", "setting": "[3]; plasma, 30 mg, AUC(0-24), Cohort 2: Compound 1 30 mg/3 hr IV, single dose, geometric mean [geometric %CV]", "result": 4320, "unit": "ng·h/mL"}, {"measurement": "AUC(0-t)", "setting": "[3]; plasma, 30 mg, AUC(0-t), Cohort 2: Compound 1 30 mg/3 hr IV, single dose, geometric mean [geometric %CV]", "result": 14100, "unit": "ng·h/mL"}, {"measurement": "AUC(0-inf)", "setting": "[3]; [5]", "result": 16600, "unit": "ng·h/mL"}, {"measurement": "Cmax", "setting": "[3]; [5]", "result": 477, "unit": "ng/mL"}, {"measurement": "Tmax", "setting": "[3]; plasma, 30 mg, Cohort 2: Compound 1 30 mg/3 hr IV, single dose, median", "result": 3, "unit": "h"}, {"measurement": "Vd", "setting": "[3]; plasma, 30 mg, Vz, Cohort 2: Compound 1 30 mg/3 hr IV, single dose, geometric mean [geometric %CV]", "result": "121 L and 1.72 L/kg"}, {"measurement": "AUC(0-t)", "setting": "[3]; plasma, 50 mg, AUC(0-24), Cohort 7: Compound 1 50 mg/3 hr IV QD × 14 days, Day 1, geometric mean", "result": 6390, "unit": "ng·h/mL"}, {"measurement": "AUC(0-t)", "setting": "[3]; plasma, 50 mg, AUC(0-24), Cohort 7: Compound 1 50 mg/3 hr IV QD × 14 days, Day 7, geometric mean", "result": 17600, "unit": "ng·h/mL"}, {"measurement": "AUC(0-t)", "setting": "[3]; plasma, 50 mg, AUC(0-24), Cohort 7: Compound 1 50 mg/3 hr IV QD × 14 days, Day 14, geometric mean", "result": 20300, "unit": "ng·h/mL"}, {"measurement": "Cmax", "setting": "[3]; plasma, 50 mg, Cohort 7: Compound 1 50 mg/3 hr IV QD × 14 days, Day 1, geometric mean", "result": 669, "unit": "ng/mL"}, {"measurement": "Cmax", "setting": "[3]; plasma, 50 mg, Cohort 7: Compound 1 50 mg/3 hr IV QD × 14 days, Day 7, geometric mean", "result": 1090, "unit": "ng/mL"}, {"measurement": "Cmax", "setting": "[3]; plasma, 50 mg, Cohort 7: Compound 1 50 mg/3 hr IV QD × 14 days, Day 14, geometric mean", "result": 1180, "unit": "ng/mL"}, {"measurement": "Tmax", "setting": "[3]; plasma, 50 mg, Cohort 7: Compound 1 50 mg/3 hr IV QD × 14 days, Day 1, median", "result": 3, "unit": "h"}, {"measurement": "Tmax", "setting": "[3]; plasma, 50 mg, Cohort 7: Compound 1 50 mg/3 hr IV QD × 14 days, Day 7, median", "result": 3, "unit": "h"}, {"measurement": "Tmax", "setting": "[3]; plasma, 50 mg, Cohort 7: Compound 1 50 mg/3 hr IV QD × 14 days, Day 14, median", "result": 3, "unit": "h"}, {"measurement": "Vd", "setting": "[3]; plasma, 50 mg, Vz, Cohort 7: Compound 1 50 mg/3 hr IV QD × 14 days, Day 14, geometric mean", "result": 2.44, "unit": "L/kg"}, {"measurement": "AUC(0-t)", "setting": "[3]; plasma, 100 mg, AUC(0-24), Cohort 3: Compound 1 100 mg/3 hr IV, single dose, geometric mean [geometric %CV]", "result": 14400, "unit": "ng·h/mL"}, {"measurement": "AUC(0-t)", "setting": "[3]; plasma, 100 mg, AUC(0-t), Cohort 3: Compound 1 100 mg/3 hr IV, single dose, geometric mean [geometric %CV]", "result": 47400, "unit": "ng·h/mL"}, {"measurement": "AUC(0-inf)", "setting": "[3]; [6]", "result": 50400, "unit": "ng·h/mL"}, {"measurement": "Cmax", "setting": "[3]; [6]", "result": 1440, "unit": "ng/mL"}, {"measurement": "Tmax", "setting": "[3]; plasma, 100 mg, Cohort 3: Compound 1 100 mg/3 hr IV, single dose, median", "result": 3, "unit": "h"}, {"measurement": "Vd", "setting": "[3]; plasma, 100 mg, Vz, Cohort 3: Compound 1 100 mg/3 hr IV, single dose, geometric mean [geometric %CV]", "result": "115 L and 1.88 L/kg"}, {"measurement": "AUC(0-t)", "setting": "[3]; plasma, 150 mg, AUC(0-24), Cohort 8: Compound 1 150 mg/3 hr IV QD × 14 days, Day 1, geometric mean", "result": 19400, "unit": "ng·h/mL"}, {"measurement": "AUC(0-t)", "setting": "[3]; plasma, 150 mg, AUC(0-24), Cohort 8: Compound 1 150 mg/3 hr IV QD × 14 days, Day 7, geometric mean", "result": 48700, "unit": "ng·h/mL"}, {"measurement": "Cmax", "setting": "[3]; plasma, 150 mg, Cohort 8: Compound 1 150 mg/3 hr IV QD × 14 days, Day 1, geometric mean", "result": 1860, "unit": "ng/mL"}, {"measurement": "Cmax", "setting": "[3]; plasma, 150 mg, Cohort 8: Compound 1 150 mg/3 hr IV QD × 14 days, Day 7, geometric mean", "result": 3090, "unit": "ng/mL"}, {"measurement": "Tmax", "setting": "[3]; plasma, 150 mg, Cohort 8: Compound 1 150 mg/3 hr IV QD × 14 days, Day 1, median", "result": 3, "unit": "h"}, {"measurement": "Tmax", "setting": "[3]; plasma, 150 mg, Cohort 8: Compound 1 150 mg/3 hr IV QD × 14 days, Day 7, median", "result": 3, "unit": "h"}]}]}
